Results reported in patent publication US20070238700A1, “N-PHENYL-1,1,1-TRIFLUOROMETHANESULFONAMIDE HYDRAZONE DERIVATIVE COMPOUNDS AND THEIR USAGE IN CONTROLLING PARASITES” (priority 2006, published 2007).
Where two headings read alike, the source gives them in different places.

System: Ctenocephalides felis
Method: b) Ctenocephalides felis Adulticide Assay: C. felis Single Dose Screen
Mortality of fleas was the primary endpoint in the assay. Fleas were considered dead if they didn't move or were on their sides and unable to walk or right themselves. […] The concentration chosen (1.26 μg/cm^2) was higher than that known to kill 90% of cat fleas (LC90) using the reference compound, permethrin.
The test species was the cat flea (Ctenocephalides felis). The strain used was obtained from external suppliers as pupae and held in the laboratory under testing conditions until the adults had emerged. Fifteen (15) fleas were used in a minimum of four replicates against a single concentration level (approximately 60 fleas). The insects were selected to be in the adult life stage, aged between 3 and 7 days post emergence.
The compounds to be tested were supplied as solids and were prepared in acetone as described below prior to testing. Samples were stored in a refrigerator (5±1° C.) unless otherwise specified.
During the mortality testing, the temperature was maintained at 25±1° C. Humidity was maintained at 75±5%. The base (area=159 mm^2) of a 100 mL glass Erlenmeyer (conical) flask provided the treatment surface. Flasks were pretreated with Coatasil™ glass treatment to maximise bio-availability of test compounds by preventing them from binding to glass the surface. The base of the 100 mL Erlenmeyer flask was treated with 0.5 mL of test sample in acetone and gently swirled. This volume was sufficient to cover the base of the flask. Flasks were left to dry for 24 hours before flea exposure.
Adult cat fleas were placed into a sorting chamber, which allowed fleas to jump into the Erlenmeyer flasks. Fifteen (15) adult cat fleas were collected in each flask. The top of the flasks were then covered in Parafilm™ and small holes were made to allow gas exchange. A 0.5 mL volume of acetone as a solvent control was applied to the base of an Erlenmeyer flask and the testing proceeded in the same manner described above. Cat fleas in the treatment containers were held under testing conditions for 8, 24 and/or 48 hours. Mortality was recorded at 8, 24, 8 and 24, or 24 and 48 hours Pooled 8, 24, 8 and 24, and 24 and 48 hour mortality data were converted to percentages and are summarized by Table 21, below.

SMILES	C. felis Mortality (%) 8 h	C. felis Mortality (%) 24 h	C. felis Mortality (%) 8 h (8 h, data from laboratory 1)	C. felis Mortality (%) 24 h (24 h, data from laboratory 1)	C. felis Mortality (%) 48 h (data from laboratory 1)
CC(=NN(C)c1ncccn1)c1cc(Cl)ccc1NS(=O)(=O)C(F)(F)F [Compound 190]	2%	15%			
CC(=NN1CCCCC1)c1cccc(NS(=O)(=O)C(F)(F)F)c1 [Compound 161]			7%	16%	
CCCN(N=C(C)c1cc(Cl)ccc1NS(=O)(=O)C(F)(F)F)c1ccccc1F [Compound 45]				27%	100%
CC(=NN(CCC#N)CCC#N)c1cc(Cl)ccc1NS(=O)(=O)C(F)(F)F [Compound 202]			3%	24%	
CC(=NNS(=O)(=O)c1ccc(C)cc1)c1cc(Cl)ccc1NS(=O)(=O)C(F)(F)F [Compound 174]			5%	27%	
CC(=Nn1c(=O)[nH]nc(C)c1=O)c1cc(Cl)ccc1NS(=O)(=O)C(F)(F)F [Compound 199]			3%	3%	
CC(=NN(C)c1cc(Cl)ccc1Cl)c1cc(Cl)ccc1NS(=O)(=O)C(F)(F)F [Compound 141]			13%	75%	
CC(=NNC(=O)c1ccc(Cl)cc1)c1cc(Cl)ccc1NS(=O)(=O)C(F)(F)F [Compound 57, N-[2-[1-(4-chlorobenzoyl)hydrazono]ethyl-4-chlorophenyl]-trifluoromethanesulfonamide]	6%	70%			
CN(N=C(c1ccccc1)c1cc(Cl)ccc1NS(=O)(=O)C(F)(F)F)c1ccccc1 (single isomer, unassigned) [Compound 118]			6%	27%	
O=S(=O)(Nc1ccc(Cl)cc1C(=NN1CCOCC1)c1ccccc1)C(F)(F)F [Compound 84]			9%	76%	
C#CCN(N=C(C)c1cc(Cl)ccc1NS(=O)(=O)C(F)(F)F)c1ccccc1 [Compound 175]			5%	38%	
CC(=NN(c1cc(Cl)ccc1Cl)C(C)C)c1cc(Cl)ccc1NS(=O)(=O)C(F)(F)F [Compound 144]			7%	42%	
O=S(=O)(Nc1ccc(Cl)cc1C(=NN1CCCCC1)c1ccccc1)C(F)(F)F [Compound 83]			15%	17%	
COCN(c1ccc(Cl)cc1C(C)=NN(C)c1ccccc1)S(=O)(=O)C(F)(F)F [Compound 110]			6%	52%	
CC(=NNc1ccc(Cl)cc1)c1ccc(C(F)(F)F)cc1NS(=O)(=O)C(F)(F)F [Compound 179]			3%	25%	
CCN(N=C(C)c1ccccc1NS(=O)(=O)C(F)(F)F)c1ccc(Cl)cc1 [Compound 182]			5%	29%	
C=CCN(N=C(C)c1cc(Cl)ccc1NS(=O)(=O)C(F)(F)F)c1ccccc1 [Compound 173]			17%	59%	
O=S(=O)(Nc1ccc(Cl)cc1-c1cc[nH]n1)C(F)(F)F [Compound 95]			25%	83%	
CC(=NN(c1ccc(Cl)c(Cl)c1)C(C)C)c1cc(Cl)ccc1NS(=O)(=O)C(F)(F)F [Compound 68]			18%	73%	
CC(=NNc1ccc(F)cc1)c1ccc(C(F)(F)F)cc1NS(=O)(=O)C(F)(F)F [Compound 180]			0%	16%	
O=S(=O)(Nc1ccc(Cl)cc1C(=NNc1ccc(Cl)cc1)c1ccccc1)C(F)(F)F [Compound 121]			12%	41%	

SMILES	C. felis Mortality (%) 8 h	C. felis Mortality (%) 24 h	C. felis Mortality (%) 8 h (8 h, data from laboratory 1)	C. felis Mortality (%) 24 h (24 h, data from laboratory 1)	C. felis Mortality (%) 48 h (data from laboratory 1)
CC(=NN(C)c1ccccn1)c1cc(Cl)ccc1NS(=O)(=O)C(F)(F)F [Compound 195]			2%	30%	
CC(=Nn1c(C)nc2ccccc2c1=O)c1cc(Cl)ccc1NS(=O)(=O)C(F)(F)F [Compound 201]			2%	10%	
CCC(=O)N(CCC#N)/N=C(\C)c1cc(Cl)ccc1NS(=O)(=O)C(F)(F)F [Compound 225]			2%	73%	
CC(=NN(c1ccccc1F)C(C)C)c1cc(Cl)ccc1NS(=O)(=O)C(F)(F)F [Compound 46]			44%	100%	
CN(N=C1CCc2cccc(NS(=O)(=O)C(F)(F)F)c21)c1ccccc1 [Compound 205]			12%	13%	
CCCN(N=C(C)c1cc(Cl)ccc1NS(=O)(=O)C(F)(F)F)c1cccc(Cl)c1 [Compound 106]			0%	25%	
CCC(=NNC(=O)OC(C)(C)C)c1cc(Cl)ccc1NS(=O)(=O)C(F)(F)F [Compound 89]			6%	43%	
CC(C)=CCN(c1ccc(Cl)cc1C(C)=NN(C)c1ccccc1)S(=O)(=O)C(F)(F)F [Compound 136]			7%	13%	
O=S(=O)(Nc1ccc(Cl)cc1C1=NN(c2cccc(F)c2)CC1)C(F)(F)F [Compound 232]			7%	27%	
CCCN(N=C(C)c1cc(Cl)ccc1NS(=O)(=O)C(F)(F)F)c1ccc(Cl)cc1Cl [Compound 31]				85%	100%
CC(=NN(C)C(=O)c1ccccc1)c1cc(Cl)ccc1NS(=O)(=O)C(F)(F)F [Compound 138]			20%	66%	
CC(=NN(C)c1ccc(F)cc1)c1cc(Cl)ccc1NS(=O)(=O)C(F)(F)F [Compound 64]			1%	50%	
CC(=O)N(N=C(C)c1cc(Cl)ccc1NS(=O)(=O)C(F)(F)F)c1ccccc1 [Compound 183]	2%	22%			
CCN(c1ccc(Cl)cc1C(C)=NN1CCCCC1)S(=O)(=O)C(F)(F)F [Compound 135, N-[2-[1-(1-piperidyl)imino]ethyl-4-chlorophenyl]-N-ethyl-trifluoromethanesulfonamide]	8%	41%			
CC(=NN1CCCCC1)c1cc2c(cc1NS(=O)(=O)C(F)(F)F)OCO2 [Compound 181]			7%	16%	
CCN(N=C(C)c1cc(Cl)ccc1NS(=O)(=O)C(F)(F)F)c1ccc(C)cc1 [Compound 101]			11%	90%	
CC(=Nn1ncc2ccccc21)c1cc(Cl)ccc1NS(=O)(=O)C(F)(F)F [Compound 193]			2%	9%	
CC(=NNc1ccc(Cl)cc1)c1ccccc1NS(=O)(=O)C(F)(F)F [Compound 122]			23%	26%	
CC(=NN(c1ccc(C)cc1)C(C)C)c1cc(Cl)ccc1NS(=O)(=O)C(F)(F)F [Compound 102]			3%	90%	
O=S(=O)(Nc1ccc(Cl)cc1-c1ccn(-c2ccccc2)n1)C(F)(F)F [Compound 94]			6%	8%	
